The results in this text go back to patent publication EP4151203B1, “RAPESEED MEAL EXTRACT, METHOD FOR PREPARING SAME AND USE IN COSMETICS, IN PARTICULAR AS A PRO-PIGMENTING, SLIMMING AGENT” (Lyster, priority 2021, dated 2023).

Test [1] deals with mélanocytes humains normaux. Put plainly: Propigmenting activity: melanin production by melanocytes (optical density at 405 nm). The test is classed as cell-based, humain. As to conditions: 250 µM. As to the method:
Les mesures de l'activité propigmentante (augmentation de la production de mélanine) de plusieurs compositions de l'extrait de tourteau de colza présentant des concentrations différentes ont été effectuée par dosage des mélanocytes humains normaux in vitro.
Les compositions de concentrations 0,03% (v/v), 0,1% (v/v), et 0,3% (v/v) ont été préparées par dilution de la solution 50/50 dans le milieu d'incubation.
Les cultures des mélanocytes normaux d'épiderme humain ont été cultivés en culture monocouche jusqu'à confluence. Puis les mélanocytes ont été incubés pendant 72 heures soit en l'absence de l'extrait à tester (contrôle) soit en présence des différentes compositions de l'extrait à tester. Le produit de référence pour l'inhibition de la synthèse de mélanine était une solution d'acide kojique à 250 µM.
Les quantités de mélanine produite par les mélanocytes ont été déterminées par une méthode spectrophotométrique c'est-à-dire une mesure de densité optique à 405 nm effectuée au moyen d'un spectrophotomètre « Genesys 150 » de la société ThermoFisher Scientific.
Le tableau 7 présente la quantité de mélanine (µg) produite par mg de protéines totales dans le lysat cellulaire monocouche.
Le niveau de signification entre le "contrôle" et la « référence » a été évalué à l'aide d'un test t de Student (* : p<0,05). [Tableau 7]

Test [2] deals with adipocytes humains normaux. Put plainly: Lipolytic activity: NEFA released by adipocytes in suspension. Type of test: cell-based, humain. The note with it: for NEFA, Moyenne / NEFA: 2 h; for NEFA, Moyenne: mean of 3, p<0.05 vs control; for NEFA: single replicate. From the text: Les mesures de l'activité lipolytique de plusieurs compositions d'extrait de tourteau de colza à des concentrations différentes ont été effectuées sur des adipocytes humains normaux de tissu cutané adipeux prélevé sur un adulte de 40 ans. Une suspension des adipocytes humains a été incubée pendant 2 H en présence d'une part des compositions d'extrait à tester et d'autre part du produit de référence (contrôle).
Les compositions de concentrations 0,003% (v/v), 0,01% (v/v), et 0,03% (v/v) d'extrait de tourteau de colza ont été préparées par dilution de la solution 50/50 dans le milieu d'incubation.
À la fin de la période d'incubation, la quantité de NEFA libérés dans le milieu d'incubation a été déterminée à l'aide d'un kit de mesure spectro-colométrique spécifique et sensible.
Le niveau de signification entre le "contrôle" et le "produit de référence" a été évalué à l'aide d'un test t de Student (* : p<0,05).
Le niveau de signification entre le le "contrôle" et chaque "composé testé" a été évalué indépendamment pour chaque composition par une analyse de variance à un facteur (ANOVA à sens unique) suivie d'un test de Holm-Sidak (* : p<0,05).

Where “and” joins values, the source holds several entries; their conditions need not be identical. Identical values can stand only once. Marks after values point to notes of the source that are not given here.

For `O=c1cc(CO)occ1O` [acide kojique], in test [1] (72 h), the “mélanine, % du contrôle” value is reported as 52.4%. In addition, the “µg mélanine/mg de protéines, Moyenne” value in test [1] (72 h, mean of 3, p<0.01 vs control) was 35.8** µg mélanine/mg de protéines. Moreover, in test [1] (72 h, single replicate), the “µg mélanine/mg de protéines” value is 45.1 µg mélanine/mg de protéines and 30.3 µg mélanine/mg de protéines and 32.0 µg mélanine/mg de protéines. Also, the “inhibe la production de mélanine” value in test [1] (inhibition vs control, significant) is recorded as 47,6%.

With `Cn1c(=O)c2c(ncn2C)n(C)c1=O` [Caféine, caféine], in test [2] (10^-3 mol/L), the “NEFA, Moyenne” value is 47.9* µM; the NEFA was 41.5 µM and 50.3 µM and 51.9 µM. For the same compound, in test [2] (10^-3 mol/L, increase vs control, p<0.05), the “augmente la lipolyse des adipocytes” value is 41.1%. Besides, in test [2] (10^-4 mol/L), the “NEFA, Moyenne” value was 37.7* µM; the NEFA was 37.1 µM and 38.8 µM and 37.2 µM.
